Data reported in PubChem BioAssay (NCI).
Several values for one entry are separate records, joined by “and”; a condition that tells them apart may be missing. Identical values can stand only once.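 Where inhibition never reached the appropriate level, the endpoint shown equals the highest concentration tested. Otherwise, values were interpolated linearly from a five-concentration, 48-hour dose response in 96-well plates. At the GI50, growth is halved. TGI denotes the concentration required for complete inhibition of growth.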 Where a SMILES comes first, the peptide text is derived from it. The star is where a group is joined. Fmoc = O=C(OCC1c2ccccc2-c2ccccc21)*; OtBu = CC(C)(C)O*

Legend:
Experiment in all cases: growth of human tumour cells (NCI), 48 h
HCT-116 colon = system: HCT-116 colon
ACHN renal = system: ACHN renal
U251 CNS = system: U251 CNS
MALME-3M melanoma = system: MALME-3M melanoma
HL-60(TB) leukemia = system: HL-60(TB) leukemia
A498 renal = system: A498 renal
786-0 renal = system: 786-0 renal
SR leukemia = system: SR leukemia
MDA-MB-435 = system: MDA-MB-435
RXF 393 renal = system: RXF 393 renal
SF-295 CNS = system: SF-295 CNS

| SMILES | TGI (HCT-116 colon) | TGI (ACHN renal) | TGI (U251 CNS) | TGI (MALME-3M melanoma) | TGI (HL-60(TB) leukemia) | TGI (A498 renal) | TGI (786-0 renal) | TGI (SR leukemia) | TGI (MDA-MB-435) | TGI (RXF 393 renal) | TGI (SF-295 CNS) | GI50 (MDA-MB-435) |
| --- | --- | --- | --- | --- | --- | --- | --- | --- | --- | --- | --- | --- |
| Cc1cc(NC2=CC(=O)C(=O)c3ccccc32)no1 | 34.4 µM | 25.8 µM | 13.4 µM | 5.92 µM | > 29.6 µM | 33.1 µM | 30.4 µM | > 48.1 µM | 3.34 µM | 29.6 µM | 21.6 µM | – |
| CCOC(=O)C1(C#N)OC(=O)c2cnccc21 (configuration not stated) | > 100 µM | > 100 µM | > 100 µM | > 100 µM | > 100 µM | > 100 µM | > 100 µM | > 100 µM | > 100 µM | > 100 µM | > 100 µM | – |
| Cc1ccc(CC(Cc2ccccc2C)C(=O)O)c(C(=O)O)c1 (configuration not stated) | > 100 µM | > 100 µM | > 100 µM | > 100 µM | > 100 µM | > 100 µM | > 100 µM | > 100 µM | > 100 µM | > 100 µM | > 100 µM | – |
| COc1cc2c(cc1OC)OC(c1c(OC)ccc(OC)c1O)CC2 (configuration not stated) | > 100 µM | > 100 µM | > 100 µM | > 100 µM | 69.4 µM | > 100 µM | > 100 µM | > 100 µM | > 100 µM | > 100 µM | > 100 µM | – |
| N#CC12C(=O)N3C(=NC(c4ccco4)NC3c3ccco3)C1(C#N)C(c1ccco1)NC1=C2CCCC1 (configuration not stated) | > 100 µM | > 100 µM | > 100 µM | > 100 µM | > 100 µM | > 100 µM | > 100 µM | > 100 µM | > 100 µM | > 100 µM | > 100 µM | – |
| NC(=O)C1CCCN1C(=O)C(Cc1cnc[nH]1)NC(=O)C1CCCC1 (configuration not stated) | > 100 µM | > 100 µM | > 100 µM | > 100 µM | > 100 µM | > 100 µM | > 100 µM | > 100 µM | > 100 µM | > 100 µM | > 100 µM | – |
| CCOc1cc(C2CC(c3ccc(NS(=O)(=O)c4cc([N+](=O)[O-])ccc4C)cc3)=NN2S(=O)(=O)c2cc([N+](=O)[O-])ccc2C)ccc1O (configuration not stated) | > 100 µM | > 100 µM | > 100 µM | > 100 µM | > 100 µM | 22 µM | 98.7 µM | > 100 µM | > 100 µM | 70.7 µM | > 100 µM | – |
| CC(C)C(NC(=O)OCC1c2ccccc2-c2ccccc21)C(=O)NC(CCC(=O)OC(C)(C)C)C(=O)OC(C)(C)C (configuration not stated) (Fmoc-Val-Glu(OtBu)-OtBu; configuration not given here) | > 100 µM | > 100 µM | > 100 µM | > 100 µM | > 100 µM | > 100 µM | > 100 µM | > 100 µM | > 100 µM | > 100 µM | > 89.1 µM | – |
| C=CCN(c1cc(OC)c(NC(C)=O)cc1[N+](=O)[O-])S(C)(=O)=O | > 100 µM | > 100 µM | > 100 µM | 68.5 µM | > 100 µM | > 100 µM | > 100 µM | > 100 µM | > 100 µM | > 100 µM | > 100 µM | – |
| O=C(Nc1ccccc1)c1cc(S(=O)(=O)Nc2n[nH]c(=O)n2-c2ccccc2)c(S)cc1Cl | > 100 µM | – | > 100 µM | > 100 µM | > 100 µM | > 100 µM | > 100 µM | > 100 µM | > 100 µM | > 100 µM | – | – |
| Cc1cc(S(=O)(=O)NC2=NCc3nc4ccccc4n32)c(S)cc1Cl | 34.5 µM | > 100 µM | > 100 µM | 56.2 µM | 51.8 µM | 70.7 µM | 47.8 µM | 49.4 µM | 82.8 µM | 33 µM | 37.6 µM | – |
| Nc1nc(Cl)cc(NCC2(O)CCC2)n1 | > 100 µM | > 100 µM | > 100 µM | > 100 µM | > 100 µM | > 100 µM | > 100 µM | > 100 µM | > 100 µM | > 100 µM | > 100 µM | – |
| Cc1ccc2c(=O)cc(-c3sccc3C)[nH]c2n1 | 18.7 µM | > 54.5 µM | > 33.6 µM | > 69.1 µM | 0.743 µM | > 35 µM | > 67.8 µM | > 61.1 µM | > 100 µM | > 20.1 µM | > 100 µM | – |
| CCn1cc2c(=O)n3ncn(-c4ccc(Br)cc4)c3nc2n1 | > 100 µM | > 100 µM | > 100 µM | > 100 µM | > 100 µM | > 100 µM | > 100 µM | > 100 µM | > 100 µM | > 100 µM | > 100 µM | – |
| CCN1CCC(O)(c2ccc(Oc3ccc(Cl)cc3)cc2)C(C(=O)c2ccc(Oc3ccc(Cl)cc3)cc2)C1 (configuration not stated) | 12.6 µM | 28.2 µM | – | 35.6 µM | 4.46 µM | 23.4 µM | 12.3 µM | > 100 µM | 38.8 µM | 46.8 µM | 27.4 µM | – |
| Cc1ccc(O)c(C(c2cccc(C(c3cc(C)ccc3O)c3cc(C)ccc3O)c2)c2cc(C)ccc2O)c1 | 3.34 µM | 3.13 µM | 3.32 µM | 3.77 µM | 5.31 µM | 2.97 µM | 3.18 µM | 7.55 µM | 3.26 µM | 3.2 µM | 3.91 µM | – |
| O=C(O)c1ccccc1C(=O)NCC1S(=O)(=O)OCCOS1(=O)=O | > 100 µM | > 100 µM | > 100 µM | > 100 µM | > 100 µM | > 100 µM | > 100 µM | > 100 µM | > 100 µM | > 100 µM | > 100 µM | – |
| Cc1ccc([N+](=O)[O-])cc1S(=O)(=O)Nc1ccc(C2=NN(S(=O)(=O)c3cc([N+](=O)[O-])ccc3C)C(c3ccccc3)C2)cc1 (configuration not stated) | 51.8 µM | > 100 µM | > 100 µM | 62.8 µM | > 100 µM | 82.6 µM | > 100 µM | > 100 µM | > 100 µM | > 100 µM | > 100 µM | – |
| CCOC(=O)c1cc(C2CCN(c3ccccc3)C2=O)c(/C(O)=C/C(C)=O)[nH]1 (configuration not stated) | > 100 µM | > 100 µM | > 100 µM | > 100 µM | 76 µM | > 100 µM | > 100 µM | > 100 µM | > 100 µM | 55.6 µM | > 100 µM | – |
| CN1C(=O)C2(C)SC1(c1ccccc1)C1C(=O)N(c3ccccc3)C(=O)C12 (configuration not stated) | > 100 µM | > 100 µM | > 100 µM | > 100 µM | > 100 µM | > 100 µM | > 100 µM | > 100 µM | > 100 µM | > 100 µM | > 100 µM | – |
| CC[C@]12C=CCN3CC[C@@]4(c5cc(N=O)c(OC)cc5N(C)[C@H]4[C@@](O)(C(=O)OC)[C@@H]1OC(C)=O)[C@@H]32 | > 100 µM | > 100 µM | 33.3 µM | > 100 µM | > 100 µM | > 100 µM | > 100 µM | > 100 µM | 74.8 µM | > 100 µM | > 100 µM | – |
| COC(=O)CCC(=O)c1ccc2c(c1)CCC2 | > 100 µM | > 100 µM | > 100 µM | > 100 µM | > 100 µM | > 100 µM | > 100 µM | > 100 µM | > 100 µM | > 100 µM | > 100 µM | – |
| COc1ccc2c(c1)Cc1c(NCCN(C)C)ccc(C(=O)NCCCN(C)CCCNC(=O)c3ccc(NCCN(C)C)c4c3Nc3ccc(OC)cc3C4)c1N2 | 0.239 µM | 9.79 µM | 1.1 µM | 0.209 µM | 1.17 µM | 0.833 µM | 0.985 µM | 0.502 µM | 0.191 µM | 1.85 µM | 3.52 µM | – |
| CCOC1CN=C(Nc2cccc3ccccc23)S1 (configuration not stated) | > 10 µM | > 10 µM | > 10 µM | > 10 µM | > 10 µM | > 10 µM | > 10 µM | > 10 µM | > 10 µM | > 10 µM | > 10 µM | – |
| CC1OC(OC2C(OC(=O)[C@]34CCC(C)(C)C[C@H]3C3=CC[C@@H]5[C@@]6(C)CC[C@H](OC7OC(C(=O)O)C(O)C(O)C7O)C(C)(C)[C@@H]6CC[C@@]5(C)[C@]3(C)C[C@H]4O)OCC(O)C2O)C(O)C(O)C1OC1OCC(O)C(O)C1O (some centres not stated) | 28.1 µM and 22.1 µM | 21.5 µM | 29.1 µM and 24.3 µM | 27.8 µM and 25.6 µM | 30.5 µM and 26.9 µM | 6.22 µM and 3.63 µM | 28.8 µM and 26.1 µM | 23 µM and > 100 µM | 30.3 µM and 18.2 µM | 35.4 µM and 31.6 µM | 29.6 µM and 22.1 µM | 16 µM and 5.32 µM |
| CC(C)[N+]([O-])(CCCNc1c2ccccc2nc2cccc([N+](=O)[O-])c12)C(C)C | 3.94 µM | 0.44 µM | 1.19 µM | 0.106 µM | 2.69 µM | 0.289 µM | 10.1 µM | 1.15 µM | 0.0758 µM | 0.403 µM | 0.904 µM | – |
| CC(=O)c1nc2ccccc2n1C(C)C(=O)c1ccccc1 (configuration not stated) | > 100 µM | – | > 100 µM | > 100 µM | > 100 µM | > 100 µM | > 100 µM | > 100 µM | > 100 µM | > 100 µM | > 100 µM | – |
| Cc1cc(S(=O)(=O)Nc2n[nH]c(-c3ccc(Cl)cc3)n2)c(SSc2cc(Cl)c(C)cc2S(=O)(=O)Nc2n[nH]c(-c3ccc(Cl)cc3)n2)cc1Cl | > 100 µM | 98.5 µM | 78.6 µM | > 100 µM | 48.5 µM | 59.1 µM | > 100 µM | 55.3 µM | > 100 µM | 63.7 µM | > 100 µM | – |
| O=c1c2cc(-c3ccccc3)cnc2sn1-c1ccc(Br)cc1 | > 100 µM | > 100 µM | > 100 µM | > 100 µM | > 100 µM | > 100 µM | > 100 µM | > 100 µM | > 100 µM | > 100 µM | > 100 µM | – |
| CCOC(=O)c1nc2cc(C(F)(F)F)ccc2nc1Oc1ccc(C#N)cc1 | > 100 µM | > 100 µM | > 100 µM | > 100 µM | > 100 µM | > 100 µM | > 100 µM | > 100 µM | > 100 µM | > 100 µM | > 100 µM | – |
